Literature values in patent US20210030671A1, “LIQUID DOSAGE FORMS OF CINACALCET OR SALT THEREOF” (FTF PHARMA PRIVATE LIMITED, priority 2018, published 2021).
Where a name gives a salt, the structure may show the parent alone. Read-outs that look alike come from different tables or passages of the source.

Row | solubility (in methanol or 95% ethanol) | solubility (in water) | Structure (SMILES)
1 | soluble | slightly soluble | C[C@@H](NCCCc1cccc(C(F)(F)F)c1)c1cccc2ccccc12 [Cinacalcet hydrochloride]
2 |  | < 1 µg/mL | C[C@@H](NCCCc1cccc(C(F)(F)F)c1)c1cccc2ccccc12 [Cinacalcet, N-[1-(R)-(−)-(1-naphthyl)ethyl]-3-[3-(trifluoromethyl)phenyl]-1-aminopropane]
